Results as given in ChEMBL document CHEMBL1136230, “Antiallergic principles from Alpinia galanga: structural requirements of phenylpropanoids for inhibition of degranulation and release of TNF-alpha and IL-4 in RBL-2H3 cells” (Bioorg Med Chem Lett, 2003).

How the values were obtained:
[1] = tested on: RBL-2H3; assay: Percentage inhibition against release of beta-hexosaminidase from RBL-2H3 cells at 100 uM from control; type: functional; settings: Rattus norvegicus
[2] = tested on: RBL-2H3; assay: Inhibitory activity against TNF-alpha production in RBL-2H3 cells was determined; type: functional, cell-based; settings: Rattus norvegicus
[3] = tested on: Mus musculus; assay: In vivo inhibitory activity against leakage of dye on ear PCA reaction 30 min after 6.25 mg/kg oral administration in mice; type: functional; design: scale not given: the % may be the effect or the level left
[4] = tested on: RBL-2H3; assay: Percentage inhibition against antigen-induced TNF-alpha production in RBL-2H3 cells at 30 uM concentration; type: functional; settings: Rattus norvegicus
[5] = tested on: RBL-2H3; assay: Percentage inhibition against antigen-induced TNF-alpha production in RBL-2H3 cells at 0 uM concentration; type: functional, Rattus norvegicus
[6] = tested on: RBL-2H3; assay: Percentage inhibition against antigen-induced IL-4 production in RBL-2H3 cells at 30 uM concentration; type: functional; settings: Rattus norvegicus
[7] = tested on: RBL-2H3; assay: Percentage inhibition against antigen-induced TNF-alpha production in RBL-2H3 cells at 3 uM concentration; type: functional; settings: Rattus norvegicus
[8] = tested on: RBL-2H3; assay: Inhibitory activity against IL-4 production in RBL-2H3 cells was determined; type: functional, cell-based; settings: Rattus norvegicus
[9] = tested on: RBL-2H3; assay: Percentage inhibition against antigen-induced TNF-alpha production in RBL-2H3 cells at 10 uM concentration; type: functional; settings: Rattus norvegicus
[10] = tested on: RBL-2H3; assay: Percentage inhibition against antigen-induced IL-4 production in RBL-2H3 cells at 10 uM concentration; type: functional; settings: Rattus norvegicus
[11] = tested on: RBL-2H3; assay: Percentage inhibition against antigen-induced IL-4 production in RBL-2H3 cells at 3 uM concentration; type: functional; settings: Rattus norvegicus
[12] = tested on: RBL-2H3; assay: Inhibitory activity against release of beta-hexosaminidase from RBL-2H3 cells; type: functional, cell-based; settings: Rattus norvegicus
[13] = tested on: Mus musculus; assay: In vivo inhibitory activity against leakage of dye on ear PCA reaction 30 min after 25 mg/kg oral administration in mice; type: functional; design: scale not given: the % may be the effect or the level left
[14] = tested on: Mus musculus; assay: In vivo inhibitory activity against leakage of dye on ear PCA reaction 30 min after 12.5 mg/kg oral administration in mice; type: functional; design: scale not given: the % may be the effect or the level left
[15] = tested on: Mus musculus; assay: In vivo inhibitory activity against leakage of dye on ear PCA reaction 30 min after 50 mg/kg oral administration in mice; type: functional; design: scale not given: the % may be the effect or the level left
[16] = tested on: RBL-2H3; assay: Percentage inhibition against antigen-induced IL-4 production in RBL-2H3 cells at 0 uM concentration; type: functional, Rattus norvegicus
[17] = tested on: RBL-2H3; assay: Percentage inhibition against antigen-induced IL-4 production in RBL-2H3 cells at 100 uM concentration; type: functional; settings: Rattus norvegicus
[18] = tested on: RBL-2H3; assay: Percentage inhibition against antigen-induced TNF-alpha production in RBL-2H3 cells at 100 uM concentration; type: functional; settings: Rattus norvegicus
[19] = tested on: Mus musculus; assay: In vivo inhibitory activity against leakage of dye on ear PCA reaction 30 min after 200 mg/kg oral administration in mice; type: functional; design: scale not given: the % may be the effect or the level left
[20] = tested on: Mus musculus; assay: In vivo inhibitory activity against leakage of dye on ear PCA reaction 30 min after 400 mg/kg oral administration in mice; type: functional; design: scale not given: the % may be the effect or the level left
[21] = tested on: Mus musculus; assay: In vivo inhibitory activity against leakage of dye on ear PCA reaction 30 min after 100 mg/kg oral administration in mice; type: functional; design: scale not given: the % may be the effect or the level left

C=C[C@H](OC(C)=O)c1ccccc1
inhibition at 100 µM [1]: 9%

C=CCc1ccc(OC(C)=O)cc1
inhibition at 100 µM [1]: 11%

OC/C=C/c1ccc(O)cc1
inhibition at 100 µM [1]: 2%

C=C[C@H](OC(C)=O)c1ccc(OC(C)=O)c(OC)c1
IC50 [2]: 5.8 µM | Control [3]: 65.2% | inhibition at 30 µM [4]: 101% | Inhibition [5]: 0% | inhibition at 30 µM [6]: 98.1% | inhibition at 3 µM [7]: 25% | IC50 [8]: 12 µM | inhibition at 10 µM [9]: 89% | inhibition at 10 µM [10]: 45.9% | inhibition at 3 µM [11]: 39.4% | IC50 [12]: 19 µM | Control [13]: 54.7% | Control [14]: 58.4% | Control [15]: 37.8% | Inhibition [16]: 0% | inhibition at 100 µM [17]: 99.9%

CC(=O)OC/C=C/c1ccc(O)cc1
inhibition at 100 µM [1]: 6%

C=CCc1ccc(O[C@H]2O[C@@H](CO)[C@H](O)[C@H](O)[C@@H]2O)cc1
inhibition at 100 µM [1]: 0%

C=C[C@H](O)c1ccc(OC(C)=O)cc1
inhibition at 100 µM [1]: 4%

C=C[C@H](O)c1ccccc1
inhibition at 100 µM [1]: 3%

CC[C@H](OC(C)=O)c1ccc(OC(C)=O)cc1
IC50 [12]: 60 µM

CC(=O)OC/C=C/c1ccc(OC(C)=O)cc1
IC50 [12]: > 100 µM | inhibition at 100 µM [1]: 21%

O=C(O)/C=C/c1cccc(O)c1
inhibition at 100 µM [1]: 1%

C=C[C@H](OC(C)=O)c1ccc(OC(C)=O)cc1 [1'-ACETOXYCHAVICOL ACETATE]
IC50 [2]: 17 µM | Control [3]: 72.4% | inhibition at 30 µM [4]: 66.9% | Inhibition [5]: 0% | inhibition at 30 µM [6]: 98.1% | inhibition at 3 µM [7]: 5.4% | IC50 [8]: 12 µM | inhibition at 100 µM [18]: 87.2% | inhibition at 10 µM [9]: 32.4% | inhibition at 10 µM [10]: 45.9% | inhibition at 3 µM [11]: 39.4% | IC50 [12]: 15 µM | Control [13]: 49.5% | Control [14]: 65.5% | Control [15]: 44.3% | Inhibition [16]: 0% | inhibition at 100 µM [17]: 99.9%

COc1ccc(/C=C/C(=O)O)cc1 [4-METHOXYCINNAMIC ACID]
inhibition at 100 µM [1]: 11%

O=C(O)/C=C/c1ccc(O)c(O)c1 [CAFFEIC ACID]
inhibition at 100 µM [1]: 5%

C=CCc1ccc(O)cc1 [CHAVICOL]
inhibition at 100 µM [1]: 3%

O=C(O)/C=C/c1ccccc1 [CINNAMIC ACID]
inhibition at 100 µM [1]: 7%

O=C(O)/C=C/c1ccc(O)cc1 [COUMARIC ACID]
inhibition at 100 µM [1]: 6%

C=CCc1ccc(O)c(OC)c1 [EUGENOL]
inhibition at 100 µM [1]: 4%

C=CCc1ccc(OC(C)=O)c(OC)c1 [EUGENYL ACETATE]
inhibition at 100 µM [1]: 9%

C=CCc1ccc(O)c(O)c1 [HYDROXYCHAVICOL]
IC50 [12]: > 100 µM | inhibition at 100 µM [1]: 17%

O=c1cc(-c2ccc(O)c(O)c2)oc2cc(O)cc(O)c12 [LUTEOLIN]
IC50 [2]: 5.8 µM | inhibition at 30 µM [4]: 101% | Inhibition [5]: 0% | inhibition at 30 µM [6]: 99.2% | inhibition at 3 µM [7]: 25% | IC50 [8]: 3.7 µM | inhibition at 10 µM [9]: 89% | inhibition at 10 µM [10]: 89.4% | inhibition at 3 µM [11]: 41.6% | Inhibition [16]: 0%

C=CCc1ccc(OC)c(OC)c1 [METHYLEUGENOL]
inhibition at 100 µM [1]: 1%

COc1ccc(/C=C/C(=O)O)cc1OC [O,O'-DIMETHYLCAFFEIC ACID]
inhibition at 100 µM [1]: 9%

O=C(O)/C=C/c1ccccc1O [O-COUMARIC ACID]
inhibition at 100 µM [1]: 11%

COc1cc(/C=C/C(=O)O)cc(OC)c1O [SINAPINATE]
inhibition at 100 µM [1]: 10%

COc1ccc(/C=C/C(=O)Nc2ccccc2C(=O)O)cc1OC [TRANILAST]
Control [19]: 49.8% | Control [20]: 42.7% | Control [21]: 66%

O=C/C=C/c1ccc(O)cc1 [p-HYDROXYCINNAMALDEHYDE]
IC50 [12]: > 100 µM | inhibition at 100 µM [1]: 22%
